Data published in patent publication US11306078B2, “Piperidine CXCR7 receptor modulators” (IDORSIA PHARMACEUTICALS LTD., priority 2016, dated 2022).
pIC50: −log10 of the molar value.

The compounds below were run against human chemokine receptor CXCR7 (Homo sapiens (Human), UniProt P25106) (assay: Tango CXCR7-bla U2OS beta-arrestin recruitment assay (beta-lactamase reporter, FRET), antagonism of CXCL12/SDF1-α). Conditions: antagonistic effect on CXCR7; Tango CXCR7-bla U2OS cells, CXCL12/SDF1-α at its EC80.
Assay type: cell-based
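Also: compounds preincubated 15 min before CXCL12 addition, then 22 h at 37 °C, FRET emission ratio read with CCF4-AM substrate after 2 h.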

Chain of human chemokine receptor CXCR7 (P25106 whole entry): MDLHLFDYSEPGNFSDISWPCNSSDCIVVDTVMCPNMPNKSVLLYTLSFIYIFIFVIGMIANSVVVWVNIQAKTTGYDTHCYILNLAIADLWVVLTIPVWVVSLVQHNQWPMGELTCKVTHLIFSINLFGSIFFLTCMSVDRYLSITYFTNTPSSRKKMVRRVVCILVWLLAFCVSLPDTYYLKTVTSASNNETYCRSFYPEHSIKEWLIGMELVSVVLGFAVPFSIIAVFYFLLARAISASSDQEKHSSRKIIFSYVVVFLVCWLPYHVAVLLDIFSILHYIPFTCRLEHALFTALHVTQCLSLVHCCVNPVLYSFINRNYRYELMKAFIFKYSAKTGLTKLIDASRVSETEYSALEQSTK

Compound | pIC50
O=C(N[C@@H]1CCN(C2CCCC2)C[C@H]1C(=O)N1CCC1)c1cc(-c2c(F)cc(F)cc2F)on1 (racemic) [Example 1.106, rac-5-(2,4,6-Trifluoro-phenyl)-isoxazole-3-carboxylic acid [(3R*,4R*)-3-(azetidine-1-carbonyl)-1-cyclopentyl-piperidin-4-yl]-amide] | 6.61
O=C(N[C@@H]1CCN(CC2CC2)C[C@H]1C(=O)N1CCC1)c1cc(-c2c(F)cc(F)cc2F)on1 (racemic) [Example 1.107, rac-5-(2,4,6-Trifluoro-phenyl)-isoxazole-3-carboxylic acid [(3R*,4R*)-3-(azetidine-1-carbonyl)-1-cyclopropylmethyl-piperidin-4-yl]-amide] | 6.28
COCC(C)(C)NC(=O)[C@@H]1CN(C2CCCC2)CC[C@H]1NC(=O)c1cn(-c2ccc(F)cc2F)nn1 (racemic) [Example 1.109, rac-(3R*,4R*)-1-Cyclopentyl-4-{[1-(2,4-difluoro-phenyl)-1H-[1,2,3]triazole-4-carbonyl]-amino}-piperidine-3-carboxylic acid (2-methoxy-1,1-dimethyl-ethyl)-amide] | 6.04
COCC(C)(C)NC(=O)[C@@H]1CN(C2CCCCC2)CC[C@H]1NC(=O)c1cc(-c2c(F)cc(F)cc2F)on1 (racemic) [Example 1.111, rac-(3R*,4R*)-1-Cyclohexyl-4-{[5-(2,4,6-trifluoro-phenyl)-isoxazole-3-carbonyl]-amino}-piperidine-3-carboxylic acid (2-methoxy-1,1-dimethyl-ethyl)-amide] | 6.48
COCC(C)(C)NC(=O)[C@@H]1CN(C2CCCC2)CC[C@H]1NC(=O)c1cc(-c2c(F)cc(F)cc2F)on1 (racemic) [Example 1.112, rac-(3R*,4R*)-1-Cyclopentyl-4-{[5-(2,4,6-trifluoro-phenyl)-isoxazole-3-carbonyl]-amino}-piperidine-3-carboxylic acid (2-methoxy-1,1-dimethyl-ethyl)-amide] | 6.64
COCC(C)(C)NC(=O)[C@@H]1CN(CC2CC2)CC[C@H]1NC(=O)c1cc(-c2c(F)cc(F)cc2F)on1 (racemic) [Example 1.113, rac-(3R*,4R*)-1-Cyclopropylmethyl-4-{[5-(2,4,6-trifluoro-phenyl)-isoxazole-3-carbonyl]-amino}-piperidine-3-carboxylic acid (2-methoxy-1,1-dimethyl-ethyl)-amide] | 6.93
COCC(C)(C)NC(=O)[C@@H]1CN(C2CCCCC2)CC[C@H]1NC(=O)c1cc(-c2ccc(F)cc2F)no1 (racemic) [Example 1.115, rac-(3R*,4R*)-1-Cyclohexyl-4-{[3-(2,4-difluoro-phenyl)-isoxazole-5-carbonyl]-amino}-piperidine-3-carboxylic acid (2-methoxy-1,1-dimethyl-ethyl)-amide] | 6.25
COCC(C)(C)NC(=O)[C@@H]1CN(C2CCCC2)CC[C@H]1NC(=O)c1cc(-c2ccc(F)cc2F)no1 (racemic) [Example 1.116, rac-(3R*,4R*)-1-Cyclopentyl-4-{[3-(2,4-difluoro-phenyl)-isoxazole-5-carbonyl]-amino}-piperidine-3-carboxylic acid (2-methoxy-1,1-dimethyl-ethyl)-amide] | 6.21
C[C@@H](NC(=O)[C@@H]1CN(C2CCCCC2)CC[C@H]1NC(=O)c1cc(-c2c(F)cc(F)cc2F)on1)c1ccccn1 (racemic) [Example 1.121, (3R*,4R*)-1-Cyclohexyl-4-{[5-(2,4,6-trifluoro-phenyl)-isoxazole-3-carbonyl]-amino}-piperidine-3-carboxylic acid ((R)-1-pyridin-2-yl-ethyl)-amide] | 8.40
C[C@@H](NC(=O)[C@@H]1CN(C2CCCCC2)CC[C@H]1NC(=O)c1cc(-c2c(F)cc(F)cc2F)on1)c1cnccn1 (racemic) [Example 1.129, (3R*,4R*)-1-Cyclohexyl-4-{[5-(2,4,6-trifluoro-phenyl)-isoxazole-3-carbonyl]-amino}-piperidine-3-carboxylic acid ((R)-1-pyrazin-2-yl-ethyl)-amide] | 6.98
C[C@@H](NC(=O)[C@@H]1CN(C2CCCC2)CC[C@H]1NC(=O)c1cc(-c2c(F)cc(F)cc2F)on1)C1CCC1 (racemic) [Example 1.138, (3R*,4R*)-1-Cyclopentyl-4-{[5-(2,4,6-trifluoro-phenyl)-isoxazole-3-carbonyl]-amino}-piperidine-3-carboxylic acid ((R)-1-cyclobutyl-ethyl)-amide] | 6.09
O=C(N[C@@H]1CCN(C2CCCCC2)C[C@H]1C(=O)NC1(c2ccc(F)cn2)CC1)c1cn(-c2ccc(F)cc2F)nn1 (racemic) [Example 1.142, rac-(3R*,4R*)-1-Cyclohexyl-4-{[1-(2,4-difluoro-phenyl)-1H-[1,2,3]triazole-4-carbonyl]-amino}-piperidine-3-carboxylic acid [1-(5-fluoro-pyridin-2-yl)-cyclopropyl]-amide] | 6.33
O=C(N[C@@H]1CCN(C2CCCCC2)C[C@H]1C(=O)NC1(c2ccc(F)cn2)CC1)c1cc(-c2c(F)cc(F)cc2F)on1 (racemic) [Example 1.143, rac-(3R*,4R*)-1-Cyclohexyl-4-{[5-(2,4,6-trifluoro-phenyl)-isoxazole-3-carbonyl]-amino}-piperidine-3-carboxylic acid [1-(5-fluoro-pyridin-2-yl)-cyclopropyl]-amide] | 6.14
O=C(N[C@@H]1CCN(CC2CC2)C[C@H]1C(=O)NC1(c2ccc(F)cn2)CC1)c1cc(-c2c(F)cc(F)cc2F)on1 (racemic) [Example 1.144, rac-(3R*,4R*)-1-Cyclopropylmethyl-4-{[5-(2,4,6-trifluoro-phenyl)-isoxazole-3-carbonyl]-amino}-piperidine-3-carboxylic acid [1-(5-fluoro-pyridin-2-yl)-cyclopropyl]-amide] | 6.75
CN(C)C(=O)[C@@H]1CN(CC2CC2)CC[C@H]1NC(=O)c1cc(-c2ccc(F)cc2F)no1 (racemic) [Example 1.149, rac-(3R*,4R*)-1-Cyclopropylmethyl-4-{[3-(2,4-difluoro-phenyl)-isoxazole-5-carbonyl]-amino}-piperidine-3-carboxylic acid dimethylamide] | 6.56
COCC(C)(C)NC(=O)[C@@H]1CN(CC2CC2)CC[C@H]1NC(=O)c1cc(-c2ccc(F)cc2F)no1 (racemic) [Example 1.151, rac-(3R*,4R*)-1-Cyclopropylmethyl-4-{[3-(2,4-difluoro-phenyl)-isoxazole-5-carbonyl]-amino}-piperidine-3-carboxylic acid (2-methoxy-1,1-dimethyl-ethyl)-amide] | 6.26

Next, values leading:

pIC50 | Compound
6.24 | COCC(C)(C)NC(=O)[C@@H]1CN(C2CCCCC2)CC[C@H]1NC(=O)c1noc(-c2ccc(F)cc2F)n1 (racemic) [Example 1.152, rac-(3R*,4R*)-1-Cyclohexyl-4-{[5-(2,4-difluoro-phenyl)-[1,2,4]oxadiazole-3-carbonyl]-amino}-piperidine-3-carboxylic acid (2-methoxy-1,1-dimethyl-ethyl)-amide]
6.10 | COCC(C)(C)NC(=O)[C@@H]1CN(CC2CC2)CC[C@H]1NC(=O)c1noc(-c2ccc(F)cc2F)n1 (racemic) [Example 1.153, rac-(3R*,4R*)-1-Cyclopropylmethyl-4-{[5-(2,4-difluoro-phenyl)-[1,2,4]oxadiazole-3-carbonyl]-amino}-piperidine-3-carboxylic acid (2-methoxy-1,1-dimethyl-ethyl)-amide]
6.02 | O=C(N[C@@H]1CCN(CC2CC2)C[C@H]1C(=O)NC1(c2ccc(F)cn2)CC1)c1cc(-c2ccc(F)cc2F)no1 (racemic) [Example 1.163, rac-(3R*,4R*)-1-Cyclopropylmethyl-4-{[3-(2,4-difluoro-phenyl)-isoxazole-5-carbonyl]-amino}-piperidine-3-carboxylic acid [1-(5-fluoro-pyridin-2-yl)-cyclopropyl]-amide]
7.04 | O=C(N[C@@H]1CCN(C2CCCCC2)C[C@H]1C(=O)NC1(c2ccccn2)CC1)c1cn(-c2ccc(F)cc2F)nn1 (racemic) [Example 1.165, rac-(3R*,4R*)-1-Cyclohexyl-4-{[1-(2,4-difluoro-phenyl)-1H-[1,2,3]triazole-4-carbonyl]-amino}-piperidine-3-carboxylic acid (1-pyridin-2-yl-cyclopropyl)-amide]
7.28 | O=C(N[C@@H]1CCN(C2CCCC2)C[C@H]1C(=O)NC1(c2ccccn2)CC1)c1cn(-c2ccc(F)cc2F)nn1 (racemic) [Example 1.166, rac-(3R*,4R*)-1-Cyclopentyl-4-{[1-(2,4-difluoro-phenyl)-1H-[1,2,3]triazole-4-carbonyl]-amino}-piperidine-3-carboxylic acid (1-pyridin-2-yl-cyclopropyl)-amide]
6.87 | O=C(N[C@@H]1CCN(CC2CC2)C[C@H]1C(=O)NC1(c2ccccn2)CC1)c1cn(-c2ccc(F)cc2F)nn1 (racemic) [Example 1.167, rac-(3R*,4R*)-1-Cyclopropylmethyl-4-{[1-(2,4-difluoro-phenyl)-1H-[1,2,3]triazole-4-carbonyl]-amino}-piperidine-3-carboxylic acid (1-pyridin-2-yl-cyclopropyl)-amide]
8.30 | O=C(N[C@@H]1CCN(C2CCCCC2)C[C@H]1C(=O)NC1(c2ccccn2)CC1)c1cc(-c2c(F)cc(F)cc2F)on1 (racemic) [Example 1.169, rac-(3R*,4R*)-1-Cyclohexyl-4-{[5-(2,4,6-trifluoro-phenyl)-isoxazole-3-carbonyl]-amino}-piperidine-3-carboxylic acid (1-pyridin-2-yl-cyclopropyl)-amide]
7.80 | O=C(N[C@@H]1CCN(CC2CC2)C[C@H]1C(=O)NC1(c2ccccn2)CC1)c1cc(-c2c(F)cc(F)cc2F)on1 (racemic) [Example 1.171, rac-(3R*,4R*)-1-Cyclopropylmethyl-4-{[5-(2,4,6-trifluoro-phenyl)-isoxazole-3-carbonyl]-amino}-piperidine-3-carboxylic acid (1-pyridin-2-yl-cyclopropyl)-amide]
6.96 | O=C(N[C@@H]1CCN(C2CCCC2)C[C@H]1C(=O)NC1(c2ccccn2)CC1)c1cc(-c2ccc(F)cc2F)no1 (racemic) [Example 1.173, rac-(3R*,4R*)-1-Cyclopentyl-4-{[3-(2,4-difluoro-phenyl)-isoxazole-5-carbonyl]-amino}-piperidine-3-carboxylic acid (1-pyridin-2-yl-cyclopropyl)-amide]
